# Measured values from article PMC2248166, “Quantitative peptide binding motifs for 19 human and mouse MHC class I molecules derived using positional scanning combinatorial peptide libraries” (Immunome Research, 2008).
# Assays:
# Format in all cases: binding
# HLA A*3001 = HLA A*3001 (Homo sapiens, UniProt P04439, D140H/D185E/E176W/F33S/G80R/H175R/K168Q/R138E/R41S); assay: biochemical
# HLA A*3201 = HLA A*3201 (Homo sapiens, UniProt P04439, A270S/D101S/D185E/E176V/E277Q/F133L/G103R/G107R/G231S/H175R/I121M/I218V/I322F/K168Q/L105A/L300P/L318F/M331R/P208A/P217A/Q94H/R106L/R138Q/S129P/T104I/T323A/T345S/V100E/V321M/V358M); assay: biochemical
# HLA A*6802 = HLA A*6802 (Homo sapiens, UniProt P04439, A269V/D140Y/D185E/E176V/E277Q/E87N/F33Y/G231S/I121R/I166T/I218V/L180W/L300P/L318F/N151K/P208A/P217A/Q86R/R138H/R169H/S129P/T345S/V36M)
# HLA B*0801 = HLA B*0801 (Homo sapiens, UniProt P01889, A93T/A95T/D138N/E176V/E187T/K202T/Q94N/R180D/S35A/V36M/Y33D/Y91F); assay: biochemical
# HLA B*1501 = HLA B*1501 (Homo sapiens, UniProt P01889, A329T/A93T/A95T/C349S/D201E/D98Y/E187L/E204Q/E69M/E70A/K202T/N87E/Q94N/R155S/R180W/S121R/S35A/S48A/V306I/V36M/Y140S/Y91S); assay: biochemical
# HLA B*1503 = HLA B*1503 (Homo sapiens, UniProt P01889, A329T/A93T/A95T/C349S/D201E/D98Y/E187L/E204Q/K202T/N87E/Q94N/R155S/R180L/S121R/S35A/V306I/V36M/Y140S/Y91S); assay: biochemical
# HLA B*3501 = HLA B*3501 (Homo sapiens, UniProt P01889, A329T/A93T/A95T/C349S/D201E/D98Y/E176V/E187L/E204Q/E69T/I218V/K202T/L119I/Q94N/R155S/R180L/S121R/S35A/S48A/T118I/V127L/V306I/V36M/Y140S/Y91F)
# HLA B*5101 = HLA B*5101 (Homo sapiens, UniProt P01889, A329T/A93T/A95T/C349S/D138N/D201E/D98Y/E187L/E204Q/E69T/G107R/I218V/K202T/L105A/L119W/N104I/Q94N/R106L/R155S/R180L/S101N/S121T/S35A/S48A/V306I/V36M/Y195H/Y91F)
# HLA B*5301 = HLA B*5301 (Homo sapiens, UniProt P01889, A329T/A93T/A95T/C349S/D201E/D98Y/E176V/E187L/E204Q/E69T/G107R/I218V/K202T/L105A/L119I/N104I/Q94N/R106L/R155S/R180L/S101N/S121R/S35A/S48A/T118I/V127L/V306I/V36M/Y140S/Y91F)
# HLA B*5401 = HLA B*5401 (Homo sapiens, UniProt P01889, A329T/C349S/D138N/D201E/E176V/E187T/E204Q/E69G/I76V/K202T/L119W/R155S/R180L/S121T/S35A/S48A/V127L/V306I/V36M/Y140L)
# HLA B*5801 = HLA B*5801 (Homo sapiens, UniProt P01889, A329T/C349S/D201E/D98Y/E176V/E187L/E204Q/E69T/G107R/I218V/I90N/K202T/L105A/L119I/N104I/N87E/Q89R/Q94S/R106L/R155S/R180L/R86G/S101N/S121R/S35A/S48A/T118I/V127L/V306I/V36M/Y140S/Y91M)
# HLA B*5802 = HLA B*5802 (Homo sapiens, UniProt P01889, A329T/C349S/D201E/D98Y/E176V/E187L/E204Q/E69T/G107R/I218V/I90N/K202T/L105A/N104I/N87E/Q89R/Q94S/R106L/R155S/R180L/R86G/S101N/S121W/S35A/S48A/V127L/V306I/V36M/Y140S/Y91M)
# H-2 D^b = H-2 D^b (Mus musculus, UniProt P01899)
# Sequence of H-2 D^b (P01887 21-119): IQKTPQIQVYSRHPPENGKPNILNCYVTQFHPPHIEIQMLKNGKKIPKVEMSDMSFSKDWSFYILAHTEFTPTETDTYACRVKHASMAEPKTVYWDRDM
# Sequence of H-2 D^b (P01899 25-362): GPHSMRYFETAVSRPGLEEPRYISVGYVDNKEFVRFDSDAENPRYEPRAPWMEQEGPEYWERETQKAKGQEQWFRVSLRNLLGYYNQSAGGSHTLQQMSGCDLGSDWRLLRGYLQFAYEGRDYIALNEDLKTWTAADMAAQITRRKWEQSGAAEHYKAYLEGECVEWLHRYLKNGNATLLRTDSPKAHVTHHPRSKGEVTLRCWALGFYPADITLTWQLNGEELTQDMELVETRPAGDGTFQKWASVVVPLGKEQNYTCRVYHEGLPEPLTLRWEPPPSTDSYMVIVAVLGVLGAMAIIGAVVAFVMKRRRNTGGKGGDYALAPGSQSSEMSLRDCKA
# H-2 D^d = H-2 D^d (Mus musculus, UniProt P01900)
# Sequence of H-2 D^d (P01900 whole entry, looked up): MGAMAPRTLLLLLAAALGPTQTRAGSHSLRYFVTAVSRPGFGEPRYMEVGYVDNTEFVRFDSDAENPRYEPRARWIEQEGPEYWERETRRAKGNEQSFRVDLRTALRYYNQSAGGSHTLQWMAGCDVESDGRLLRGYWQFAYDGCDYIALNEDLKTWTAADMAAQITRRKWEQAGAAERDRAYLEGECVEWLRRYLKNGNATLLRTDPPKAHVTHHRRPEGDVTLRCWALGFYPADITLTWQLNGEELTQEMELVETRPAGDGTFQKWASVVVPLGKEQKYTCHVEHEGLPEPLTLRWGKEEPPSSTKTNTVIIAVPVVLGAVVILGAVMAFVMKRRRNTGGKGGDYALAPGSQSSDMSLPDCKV
# H-2 K^d = H-2 K^d (Mus musculus, UniProt P01902)
# Sequence of H-2 K^d (P01887 21-119): as the sequence (P01887 21-119) above
# Sequence of H-2 K^d (P01902 22-368): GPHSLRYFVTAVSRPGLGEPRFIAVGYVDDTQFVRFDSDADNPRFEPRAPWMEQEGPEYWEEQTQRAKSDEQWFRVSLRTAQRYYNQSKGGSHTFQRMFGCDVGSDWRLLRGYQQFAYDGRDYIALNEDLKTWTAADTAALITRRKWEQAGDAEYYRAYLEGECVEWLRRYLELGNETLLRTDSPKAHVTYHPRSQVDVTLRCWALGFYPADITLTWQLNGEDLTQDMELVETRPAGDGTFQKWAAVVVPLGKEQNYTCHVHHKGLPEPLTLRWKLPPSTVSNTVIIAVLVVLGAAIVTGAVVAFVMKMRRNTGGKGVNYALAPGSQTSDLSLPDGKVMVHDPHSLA
# H-2 K^k = H-2 K^k (Mus musculus, UniProt P04223)
# Sequence of H-2 K^k (P01887 21-119): as the sequence (P01887 21-119) above
# Sequence of H-2 K^k (P04223 22-369): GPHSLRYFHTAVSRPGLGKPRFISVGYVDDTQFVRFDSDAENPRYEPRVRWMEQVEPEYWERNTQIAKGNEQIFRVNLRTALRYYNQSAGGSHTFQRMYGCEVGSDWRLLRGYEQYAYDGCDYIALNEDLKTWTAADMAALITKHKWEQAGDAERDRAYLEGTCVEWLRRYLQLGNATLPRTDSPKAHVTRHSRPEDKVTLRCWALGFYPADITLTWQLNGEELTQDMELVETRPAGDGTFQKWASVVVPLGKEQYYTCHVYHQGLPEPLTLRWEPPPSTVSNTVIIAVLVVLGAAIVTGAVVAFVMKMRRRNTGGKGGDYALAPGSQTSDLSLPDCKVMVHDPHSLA
Sequence,Normalized average relative binding affinity(ARB) (HLA A*3001),Normalized average relative binding affinity(ARB) (HLA A*3201),Normalized average relative binding affinity(ARB) (HLA A*6802),Normalized average relative binding affinity(ARB) (HLA B*0801),Normalized average relative binding affinity(ARB) (HLA B*1501),Normalized average relative binding affinity(ARB) (HLA B*1503),Normalized average relative binding affinity(ARB) (HLA B*3501),Normalized average relative binding affinity(ARB) (HLA B*5101),Normalized average relative binding affinity(ARB) (HLA B*5301),Normalized average relative binding affinity(ARB) (HLA B*5401),Normalized average relative binding affinity(ARB) (HLA B*5801),Normalized average relative binding affinity(ARB) (HLA B*5802),Normalized average relative binding affinity(ARB) (H-2 D^b),Normalized average relative binding affinity(ARB) (H-2 D^d),Normalized average relative binding affinity(ARB) (H-2 K^d),Normalized average relative binding affinity(ARB) (H-2 K^k)
XXXXXXXLX [3064.0150],0.23,0.29,0.16,0.11,0.15,0.13,0.31,0.86,0.42,0.053,0.43,0.57,0.46,0.80,0.43,0.54
XXXXXXXMX [3064.0151],0.14,0.52,0.16,0.24,0.061,0.14,0.28,0.32,0.33,0.045,0.18,0.32,0.17,0.47,0.43,0.49
XXXXXXXNX [3064.0152],0.54,0.42,0.18,0.086,0.12,0.13,0.14,0.33,0.21,0.076,0.25,0.27,0.099,0.49,0.40,0.066
XXXXXXXPX [3064.0153],0.80,0.87,0.33,0.73,0.35,0.30,0.64,0.51,0.15,0.72,0.18,0.16,1.0,0.73,0.75,0.44
XXXXXXXQX [3064.0154],0.27,0.35,0.14,0.15,0.17,0.19,0.10,0.32,0.16,0.11,0.39,0.30,0.16,0.68,0.54,0.19
XXXXXXXRX [3064.0155],0.35,0.26,0.13,0.30,0.15,0.11,0.072,0.36,0.46,0.059,0.13,0.37,0.068,0.46,0.49,0.10
XXXXXXXSX [3064.0156],0.23,1.0,0.27,1.0,0.34,1.0,0.20,0.44,0.11,1.0,0.31,0.30,0.13,1.0,0.61,0.48
XXXXXXXTX [3064.0157],0.31,0.86,0.37,0.24,0.40,0.23,0.26,0.57,0.22,0.20,0.29,0.66,0.24,0.58,0.52,0.28
